Laboratory results published in patent US20170044104A1, “NEW PESTICIDAL COMPOUNDS AND USES” (BAYER CROPSCIENCE AG, priority 2013, published 2017).
Like-named read-outs stand apart in the source and are kept apart here.

Tests used:
[1] = test system: Nippostrongylus brasiliensis; assay: Nippostrongylus brasiliensis (NIPOBR) assay, acetylcholine esterase readout; settings: 10 ppm (10 μg/ml), adult worms, read-out: activity (reduction of AChE compared to negative control)
Description: Adult Nippostrongylus brasiliensis were washed with saline buffer containing 100 U/ml penicillin, 0.1 mg/ml streptomycin and 2.5 μg/ml amphotericin B. Test compounds were dissolved in DMSO and worms were incubated in medium in a final concentration of 10 μg/ml (10 ppm). An aliquot of the medium was used to determine the acetylcholine esterase activity in comparison to a negative control. The principle of measuring acetylcholine esterase as readout for anthelmintic activity was described in Rapson et al (1986) and Rapson et al (1987).

[2] = test system: Cooperia curticei; assay: Cooperia curticei (COOPCU) larval mortality assay; settings: 120 h, after 5 days, read-out: activity (percentage of larval mortality); for mortality at 20 ppm: application rate 20 ppm
Description: (§1) Solvent: dimethyl sulfoxide
(§2) To produce a suitable preparation of active compound, 10 mg of active compound are dissolved in 0.5 ml solvent, and the concentrate is diluted with “Ringer's solution” to the desired concentration.
Approximately 40 nematode larvae (Cooperia curticei) are transferred into a test tube containing the compound solution.
After 5 days percentage of larval mortality is recorded. 100% efficacy means all larvae are killed; 0% efficacy means no larvae are killed.

[3] = test system: Haemonchus contortus; assay: Haemonchus contortus (HAEMCO) larval mortality assay; settings: 120 h; for mortality at 20 ppm: application rate 20 ppm, after 5 days, read-out: activity (percentage of larval mortality); for Emax at 0.8 ppm / Emax at 4 ppm / Emax at 20 ppm: comparative test, 5 dat, read-out: % Efficacy
Description: as §1, §2
Approximately 40 larvae of the red stomach worm (Haemonchus contortus) are transferred into a test tube containing compound solution.
After 5 days percentage of larval mortality are recorded. 100% efficacy means all larvae are killed, 0% efficacy means no larvae are killed.

[4] = test system: Meloidogyne incognita; assay: Meloidogyne incognita (MELGIN) gall formation assay; format: in vivo; settings: 336 h, read-out: nematicidal activity (percentage of gall formation)
Description: Solvent: 125.0 parts by weight of acetone
To produce a suitable preparation of active compound, 1 part by weight of active compound is mixed with the stated amount of solvent, and the concentrate is diluted with water to the desired concentration.
Vessels are filled with sand, a solution of the active ingredient, a suspension containing eggs and larvae of the southern root-knot nematode (Meloidogyne incognita) and salad seeds. The salad seeds germinate and the seedlings grow. Galls develop in the roots.
After 14 days the nematicidal activity is determined on the basis of the percentage of gall formation. 100% means no galls were found and 0% means the number of galls found on the roots of the treated plants was equal to that in untreated control plants.

[5] = application rate 20 ppm, after 14 days, salad seedlings

Row | Structure (SMILES) | inhibition at 10 ppm [1] [%] | mortality at 20 ppm [2] [%] | mortality at 20 ppm [3] [%] | pest or weed control at 20 ppm [4, 5] [%] | pest or weed control at 20 ppm [4] [%] | Emax at 0.8 ppm [3] [%] | Emax at 4 ppm [3] [%] | Emax at 20 ppm [3] [%] | mortality at 4 ppm ([2]; application rate 4 ppm) [%]
1 | O=C(NCCc1cccc(-c2ccc(OCC(F)(F)F)nc2)c1)c1ccccc1C(F)(F)F [Example 1-1] | ≥ 60 | 80 | 80 | – | – | – | – | – | –
2 | O=C(NCCc1cccc(-c2ccc(Cl)nc2)c1)c1ccccc1C(F)(F)F [Example 1-9] | ≥ 60 | 100 | – | – | – | – | – | – | –
3 | O=C(NCCc1ccc(-c2cncc(Cl)c2)cc1)c1cccnc1C(F)(F)F [Example 1-16] | – | 100 | 80 | 90 | – | – | – | – | –
4 | O=C(NCCc1ccc(-c2cncc(F)c2)cc1)c1cccnc1C(F)(F)F [Example 1-20] | – | 100 | 80 | 90 | – | – | – | – | –
5 | Cn1cc(-c2ccc(CCNC(=O)c3cccnc3C(F)(F)F)cc2)cn1 [Example 1-24] | – | 90 | – | 90 | – | – | – | – | –
6 | O=C(NCCc1ccc(-c2cccnc2)cc1Cl)c1ccccc1C(F)(F)F [Example 1-33] | ≥ 60 | 100 | 100 | – | – | – | – | – | –
7 | O=C(NCCc1ccc(-c2cncc(F)c2)cc1Cl)c1ccccc1C(F)(F)F [Example 1-37] | ≥ 60 | 100 | 100 | – | 90 | 100 | 100 | 100 | –
8 | O=C(NCCc1ccc(-c2ccccn2)cc1Cl)c1ccccc1C(F)(F)F [Example 1-39] | – | 100 | 100 | 100 | – | – | – | – | –
9 | Cc1ncccc1-c1ccc(CCNC(=O)c2ccccc2C(F)(F)F)c(Cl)c1 [Example 1-42] | – | 100 | 100 | 90 | – | – | – | – | –
10 | O=C(NCCc1ccc(-c2ccc(F)nc2)cc1Cl)c1ccccc1C(F)(F)F [Example 1-44] | ≥ 60 | 100 | 100 | – | 90 | 100 | 100 | 100 | –
11 | O=C(NCCc1ccc(-c2cncc(Cl)c2)cc1Cl)c1ccccc1C(F)(F)F [Example 1-45, N-{2-[2-chloro-4-(5-chloropyridin-3-yl)phenyl]ethyl}-2-(trifluoromethyl)benzamide] | ≥ 60 | 100 | 100 | – | – | 100 | 100 | 100 | –
12 | Cn1cc(-c2ccc(CCNC(=O)c3ccccc3C(F)(F)F)c(Cl)c2)cn1 [Example 1-47] | – | 100 | 100 | 100 | – | 80 | 100 | 100 | –
13 | O=C(NCCc1ccc(-c2cccnc2Cl)cc1Cl)c1ccccc1C(F)(F)F [Example 1-48] | ≥ 60 | 100 | 100 | – | 90 | 80 | 100 | 100 | –
14 | O=C(NCCc1ccc(-c2ccc(Cl)nc2Cl)cc1Cl)c1ccccc1C(F)(F)F [Example 1-49] | ≥ 60 | 100 | 90 | – | – | – | – | – | –
15 | O=C(NCCc1ccc(-c2cncc(Cl)c2)cc1)c1ccccc1C(F)(F)F [Example 1-53] | ≥ 60 | 100 | 100 | – | – | – | – | – | –
16 | O=C(NCCc1ccc(-c2ccc(Cl)nc2)cc1Cl)c1ccccc1C(F)(F)F [Example 1-66] | – | 100 | 100 | 90 | – | – | – | – | –
17 | O=C(NCC(F)(F)c1ccc(-c2ccc(Cl)nc2)cc1Cl)c1ccccc1C(F)(F)F [Example 1-68] | ≥ 60 | 100 | 100 | – | 90 | – | – | – | –
18 | O=C(NCC(F)(F)c1ccc(-n2cc(C(F)(F)F)cn2)cc1Cl)c1ccccc1C(F)(F)F [Example 1-69, N-[2-[2-chloro-4-[4-(trifluoromethyl)pyrazol-1-yl]phenyl]-2,2-difluoro-ethyl]-2-(trifluoromethyl)benzamide] | ≥ 60 | 100 | 100 | – | 100 | 100 | 100 | 100 | –
19 | O=C(NCC(F)c1ccc(-c2cccnc2Cl)cc1Cl)c1ccccc1C(F)(F)F (stereo not drawn) [Example 1-75] | ≥ 60 | 100 | 100 | – | – | – | – | – | –

Row | Structure (SMILES) | inhibition at 10 ppm [1] [%] | mortality at 20 ppm [2] [%] | mortality at 20 ppm [3] [%] | pest or weed control at 20 ppm [4, 5] [%] | pest or weed control at 20 ppm [4] [%] | Emax at 0.8 ppm [3] [%] | Emax at 4 ppm [3] [%] | Emax at 20 ppm [3] [%] | mortality at 4 ppm ([2]; application rate 4 ppm) [%]
20 | O=C(NCC(F)c1ccc(-c2cccnc2Cl)cc1Cl)c1cccnc1C(F)(F)F (stereo not drawn) [Example 1-80] | – | 100 | 100 | 90 | – | – | – | – | –
21 | O=C(NCC(F)c1ccc(-c2ccnc(F)c2)cc1Cl)c1cccnc1C(F)(F)F (stereo not drawn) [Example 1-81] | – | 100 | 100 | 100 | – | – | – | – | –
22 | O=C(NCC(F)c1ccc(-c2cncc(Cl)c2)cc1Cl)c1nccnc1C(F)(F)F (stereo not drawn) [Example 1-82] | ≥ 60 | 100 | 100 | – | 100 | – | – | – | –
23 | O=C(NCC(F)c1ccc(-c2ccc(Cl)nc2)cc1Cl)c1nccnc1C(F)(F)F (stereo not drawn) [Example 1-85] | – | 100 | 100 | 100 | – | – | – | – | –
24 | O=C(NCC(F)c1ccc(-c2ccc(Cl)nc2)cc1Cl)c1cccnc1C(F)(F)F (stereo not drawn) [Example 1-86] | – | 100 | 100 | 100 | – | – | – | – | –
25 | O=C(NCC(F)c1ccc(-c2ccc(F)nc2)cc1Cl)c1nccnc1C(F)(F)F (stereo not drawn) [Example 1-87] | ≥ 60 | 100 | 100 | – | 100 | – | – | – | –
26 | O=C(NCC(F)c1ccc(-c2ccc(F)nc2)cc1Cl)c1cccnc1C(F)(F)F (stereo not drawn) [Example 1-88] | ≥ 60 | 100 | 100 | – | 100 | – | – | – | –
27 | COc1ccc(-c2ccc(C(F)(F)CNC(=O)c3ccccc3C(F)(F)F)c(Cl)c2)cn1 [Example 1-90] | ≥ 60 | 100 | 100 | – | – | – | – | – | –
28 | O=C(NCC(F)(F)c1ccc(-c2cc(Cl)nc(Cl)c2)cc1Cl)c1ccccc1C(F)(F)F [Example 1-92] | ≥ 60 | 100 | 100 | – | – | – | – | – | –
29 | O=C(NCC(F)(F)c1ccc(-c2ccc(C(F)(F)F)nc2)cc1Cl)c1ccccc1C(F)(F)F [Example 1-94] | – | 100 | 100 | 100 | – | – | – | – | –
30 | O=C(NCC(F)(F)c1ccc(-c2cncc(F)c2)cc1Cl)c1ccccc1C(F)(F)F [Example 1-96] | ≥ 60 | 100 | 100 | – | – | – | – | – | –
31 | O=C(NCC(F)(F)c1ccc(-c2cncc(Cl)c2)cc1Cl)c1ccccc1C(F)(F)F [Example 1-97] | ≥ 60 | 100 | 100 | – | – | – | – | – | –
32 | CC(F)(CNC(=O)c1cccnc1C(F)(F)F)c1ccc(-c2cncc(F)c2)cc1Cl (stereo not drawn) [Example 1-98] | ≥ 60 | 100 | 100 | – | – | – | – | – | –
33 | O=C(NCC(F)(F)c1ccc(-c2ccc(F)nc2)cc1Cl)c1cccnc1C(F)(F)F [Example 1-104] | – | – | 90 | 100 | – | – | – | – | 100
34 | O=C(NCC(F)(F)c1ccc(-c2cncc(Cl)c2)cc1F)c1ccccc1C(F)(F)F [Example 1-107] | ≥ 60 | 100 | 100 | – | – | – | – | – | –
35 | O=C(NCC(F)(F)c1ccc(-c2cncc(F)c2)cc1F)c1ccccc1C(F)(F)F [Example 1-111] | ≥ 60 | 100 | 100 | – | – | – | – | – | –
36 | O=C(NCC(F)(F)c1ccc(-c2cncc(Cl)c2)cc1C(F)(F)F)c1ccccc1C(F)(F)F [Example 1-120] | – | 100 | 100 | 100 | – | – | – | – | –
37 | O=C(NCC(F)(F)c1ccc(-c2ccc(Cl)nc2)cc1C(F)(F)F)c1ccccc1C(F)(F)F [Example 1-126] | – | 100 | 100 | 90 | – | – | – | – | –
38 | O=C(NCC(F)(F)c1ccc(-c2ccc(F)nc2)cc1C(F)(F)F)c1ccccc1C(F)(F)F [Example 1-128] | – | 100 | 100 | 100 | – | – | – | – | –
